What was measured:
[1] = tested on: Neurons originating from the cerebral hemisphere of rat fetus; assay: Neurite-extension effect; format: cell-based; set-up: key to Neurite-extension effect: 0: No effect; +: Faintly effective; ++: Slightly effective; +++: Effective >160%; ++++: Remarkably effective >200%; settings: for activity at 0.01 µM: Rattus norvegicus, Neuron, 72 h; for activity at 0.01 µM / Neurite-extension effect: 1×10^−8 M, cultured for three days, phase-contrast microscope; for neurite-extension effect as compared with bFGF (in words): summary of Table 1
Experimental: Neurons originating from the cerebral hemisphere of rat fetus (13–15 days) were used. The neurons were cultured according to a method described by Borg, J. et al. (Borg, J. et al.: Dev. Brain Res., 18: 37, 1985). Neurons in an amount of 1.5×10^5 were dispersed on a polylysine-coated dish (35 mm), and DMEM (supplemented with insulin, transferrin, progesterone, sodium selenate, and putrescine) was added thereto in an amount of 3 ml. Compound (1) of the present invention was dissolved in ethanol, and then the solution was added thereto such that the concentration became 1×10^−8 M. The neurons had been cultured for three days without the culture medium being changed. Thereafter, the neurons were fixed by use of PBS containing 2% glutaraldehyde and observed under a phase-contrast microscope.

[2] = tested on: transgenic mice expressing an SOD-1 mutant gene; assay: Bar test for confirming the motor function in transgenic mice expressing the mutant SOD-1 gene; format: in vivo, mouse; settings: 8 mg/kg i.p. three times a week; measured from 80 to 91 days after birth; metallic bar 10 mm diameter, 45 cm length
Experimental: (2) Meanwhile, during the survival test (1) of the transgenic mice, bar test for confirming the motor function was conducted. In this test, the mouse to which was administered compound of Preparation 10 and control mouse were compared in the time (seconds) required for their passing over a metallic bar having the size of 10 mm in diameter and 45 cm in length. The measurement was carried out from 80 days to 91 days after birth. […] However, when compared the difference between the time at the initial date and the time at the final date, of the mouse to which was administered compound of Preparation Example 10 and of the control mouse, the ratio of the difference of the mouse to which was administered compound of Preparation Example 10 to the difference of the control mouse was about 40%.

[3] = tested on: transgenic mice expressing an SOD-1 mutant gene (G86R); assay: Survival test for transgenic mice expressing an SOD-1 mutant gene; format: in vivo, mouse
Experimental: Ten transgenic mice were subjected to the survival test. The transgenic mice employed were those in which Gly-86 in the fourth exon of a mouse SOD-1 gene is mutated to Arg (G86R) (Ripps M. E., et al.: Proc. Natl. Acad. Sci. USA. 92: 689–693, 1995). The compound of Preparation Example 10 [3-(14-hydroxytetradecyl)-4-methyl-2-cyclohexen-1-one] was dissolved in ethanol/Tween 80/physiological saline (5/2.85/92.15). The solution was intraperitoneally (i.p.) administered to five specimens at an effective dose of 2 mg/kg for 40 continuous days, and physiological saline alone was similarly administered to the other five specimens. One mouse died due to injection complication before elapse of 90 days. The other four mice died at day 150. All control animals died at about day 90. The life was prolonged by 50% or more, which has high significance.
(1) Transgenic mice expressing an SOD-1 mutant gene were subjected to the survival test in the same manner as Test Example 1 except that 8 mg/kg of compound of Preparation Example 10 was intraperitoneally administered three times a week until the mice died. […] The life was prolonged by 30% or more.
(3) Moreover, in the survival test of transgenic mice (1), onset day (i.e., the day from which mouse becomes impossible to move) was compared between the mouse to which was administered compound of Preparation Example 10 and the control mouse. As a result, for the mouse to which was administered compound of Preparation Example 10, when compared to the control mouse, a prolonged time to the onset day by […] was observed, onset day being prolonged by 20%.

Compound: CCCCCCCCCCC(O)C1=CC(=O)CCC1 (stereo not drawn) [Preparation Example 2, 3-(1-hydroxy-undecyl)-2-cyclohexen-1-one]
- melting point: 34 to 35 °C

Compound: O=C1C=C(CCCCCCCCCCCCO)CCC1 [Preparation Example 3, 3-(12-hydroxy-dodecyl)-2-cyclohexen-1-one]
- melting point: 35 to 36 °C

Compound: CCCCCCCCCCCC(O)CC1=CC(=O)CCC1 (stereo not drawn) [Preparation Example 4, 3-(β-hydroxy-tridecyl)-2-cyclohexen-1-one]
- melting point: 42 to 43 °C

Compound: O=C1C=C(CCCCCCCCCCCCCCO)CCC1 [Preparation Example 5, 3-(14-hydroxy-tetradecyl)-2-cyclohexen-1-one]
- melting point: 44 to 45 °C

Compound: CC1CCC(=O)C=C1CCCCCCCCCCCCO (stereo not drawn) [Preparation Example 8, 3-(12-hydroxydodecyl)-4-methyl-2-cyclohexen-1-one]
- activity at 0.01 µM [1]: > 160%

Compound: CCCCCCCCCCCC(O)CC1=CC(=O)CCC1C (stereo not drawn) [Preparation Example 9, 3-(β-hydroxytridecyl)-4-methyl-2-cyclohexen-1-one]
- activity at 0.01 µM [1]: > 200%
- neurite-extension effect as compared with bFGF (in words) [1]: remarkably excellent

Compound: CC1CCC(=O)C=C1CCCCCCCCCCCCCCO (stereo not drawn) [Preparation Example 10, 3-(14-hydroxytetradecyl)-4-methyl-2-cyclohexen-1-one]
- ratio of the difference (time at initial date vs final date for passing the bar) of treated mouse to that of control mouse [2]: about 40%
- activity at 0.01 µM [1]: > 200%
- neurite-extension effect as compared with bFGF (in words) [1]: remarkably excellent
- prolongation of life ([3]; Test Example 1: 2 mg/kg i.p. for 40 continuous days, versus saline control): ≥ 50%
- day at which treated mice died ([3]; Test Example 1: 2 mg/kg i.p. for 40 continuous days, four of five mice (one died of injection complication before day 90), controls died at about day 90): 150 days
- activity of mice during the test ([3]; Test Example 1, control mice were morbid and could not act appropriately): very active
- survival of two of the treated mice ([3]; Test Example 2: 8 mg/kg i.p. three times a week until death): more than 200 days
- day at which treated mice died, on average ([3]; Test Example 2: 8 mg/kg i.p. three times a week until death, controls died at around day 110): ~150 days
- prolongation of onset day ([3]; Test Example 2: 8 mg/kg i.p. three times a week, compared to control): 20%
- prolongation of life ([3]; Test Example 2: 8 mg/kg i.p. three times a week, versus control): ≥ 30%

Compound: CC1(C)CCC(=O)C=C1CCCCCCCCCCCO [Preparation Example 12, 3-(11-hydroxyundecyl)-4,4-dimethyl-2-cyclohexen-1-one]
- Neurite-extension effect [1]: ++

Compound: CC1(C)CCC(=O)C=C1CCCCCCCCCCCCO [Preparation Example 13, 3-(12-hydroxydodecyl)-4,4-dimethyl-2-cyclohexen-1-one]
- activity at 0.01 µM [1]: > 160%

Compound: CCCCCCCCCCCC(O)CC1=CC(=O)CCC1(C)C (stereo not drawn) [Preparation Example 14, 3-(β-hydroxytridecyl)-4,4-dimethyl-2-cyclohexen-1-one]
- activity at 0.01 µM [1]: > 160%

Compound: CC1(C)CCC(=O)C=C1CCCCCCCCCCCCCCO [Preparation Example 15, 3-(14-hydroxytetradecyl)-4,4-dimethyl-2-cyclohexen-1-one]
- activity at 0.01 µM [1]: > 160%

Compound: CC1=C(CCCCCCCCCCCCO)CCCC1=O [Preparation Example 18, 3-(12-hydroxydodecyl)-2-methyl-2-cyclohexen-1-one]
- Neurite-extension effect [1]: ++

Compound: CC1=C(CCCCCCCCCCCCCCO)CCCC1=O [Preparation Example 20, 3-(14-hydroxytetradecyl)-2-methyl-2-cyclohexen-1-one]
- activity at 0.01 µM [1]: > 200%
- neurite-extension effect as compared with bFGF (in words) [1]: remarkably excellent

Compound: CC1=C(CCCCCCCCCCC(C)O)C(C)(C)CCC1=O (stereo not drawn) [Preparation Example 22, 3-(11-hydroxydodecyl)-2,4,4-trimethyl-2-cyclohexen-1-one]
- Neurite-extension effect [1]: ++

Compound: CC1=C(CCCCCCCCCCCCCCO)C(C)(C)CCC1=O [Preparation Example 23, 3-(14-hydroxytetradecyl)-2,4,4-trimethyl-2-cyclohexen-1-one]
- activity at 0.01 µM [1]: > 160%
- neurite-extension effect as compared with bFGF (in words) [1]: remarkably excellent

Compound: CC1=C(CCCCCCCCCCCCCCCO)C(C)(C)CCC1=O [Preparation Example 24, 3-(15-hydroxypentadecyl)-2,4,4-trimethyl-2-cyclohexen-1-one]
- activity at 0.01 µM [1]: > 200%
- neurite-extension effect as compared with bFGF (in words) [1]: remarkably excellent

Compound: BFGF: bFGF, comparison substance in the neurite-extension test of Table 1 [reference compound]
- Neurite-extension effect [1]: ++

Source: patent US7166642B1, “Use of cyclohexenone long-chain alcohol for treating neurodegenerative diseases” (Meiji Dairies Corporation, priority 1999, dated 2007)
